Measurements as given in patent US11912701B2, “Protein kinase inhibitors for promoting liver regeneration or reducing or preventing hepatocyte death” (HEPAREGENIX GMBH, priority 2018, dated 2024).

What was measured:
BRaf [1] = target: T1, BRaf (Homo sapiens, UniProt P15056); assay: 33PanQinase enzyme assay, BRaf; assay type: biochemical; settings: ratio IC50(BRaf)/IC50(MKK4)
T1 construct: purchased ProQinase GmbH, Freiburg, Germany (33PanQinase Assay Service)
In short: (§1)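 33Pi incorporation, read by microplate scintillation counting, measured kinase activity after 60 min at 30 °C. Reactions were quenched with 2% (v/v) H3PO4 and washed with 0.9% NaCl. IC50 derived by least-squares fitting; single doses reported as % residual activity.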

MKK7 [2] = target: T2, MKK7 (Homo sapiens, UniProt O14733); assay: KINOMEscan competition binding assay, MKK7; design: M1/R419; host or cells: HEK-293; settings: ratio PoC (off-target)/PoC (MKK4)
T2 sequence (O14733 1-419): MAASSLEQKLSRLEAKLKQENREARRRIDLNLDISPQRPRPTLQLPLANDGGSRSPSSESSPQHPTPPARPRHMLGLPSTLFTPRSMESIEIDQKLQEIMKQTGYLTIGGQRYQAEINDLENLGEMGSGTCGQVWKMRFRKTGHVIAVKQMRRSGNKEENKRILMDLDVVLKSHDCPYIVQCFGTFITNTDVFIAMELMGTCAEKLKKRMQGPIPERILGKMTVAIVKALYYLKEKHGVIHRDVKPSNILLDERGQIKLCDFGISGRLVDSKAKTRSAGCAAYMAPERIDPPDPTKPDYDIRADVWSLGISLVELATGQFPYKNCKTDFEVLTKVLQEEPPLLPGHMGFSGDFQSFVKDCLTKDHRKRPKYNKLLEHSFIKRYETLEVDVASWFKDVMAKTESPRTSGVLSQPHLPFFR
In short: (§2)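 DNA-tagged kinases expressed in HEK-293 cells compete between immobilized ligand on blocked beads and test compound at 100 nM; kinase retained on beads quantified by qPCR of the tag.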

MKK7 [3] = target: T2, MKK7; assay: 33PanQinase enzyme assay, MKK7; assay type: biochemical; design: purchased ProQinase GmbH, Freiburg, Germany (33PanQinase Assay Service); settings: ratio IC50(MKK7)/IC50(MKK4)
In short: as §1

JNK1 [4] = target: T3, JNK1 (Homo sapiens, UniProt P45983); assay: KINOMEscan competition binding assay, JNK1; design: M1/Q384; host or cells: HEK-293; settings: ratio PoC (off-target)/PoC (MKK4)
In short: as §2
Target sequence in this assay (P45983 1-384 isoform P45983-2): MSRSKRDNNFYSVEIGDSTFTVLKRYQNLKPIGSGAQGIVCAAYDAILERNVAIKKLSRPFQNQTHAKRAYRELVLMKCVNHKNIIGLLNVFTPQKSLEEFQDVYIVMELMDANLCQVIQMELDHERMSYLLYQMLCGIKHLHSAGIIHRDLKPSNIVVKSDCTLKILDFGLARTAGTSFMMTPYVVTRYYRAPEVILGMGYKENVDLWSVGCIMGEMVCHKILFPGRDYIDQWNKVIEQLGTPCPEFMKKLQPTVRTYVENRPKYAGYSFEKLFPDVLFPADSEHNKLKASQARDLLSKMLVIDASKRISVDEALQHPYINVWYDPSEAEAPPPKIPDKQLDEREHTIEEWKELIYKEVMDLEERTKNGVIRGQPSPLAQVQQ

MKK4 [5] = target: T4, MKK4 (Homo sapiens, UniProt P45985); assay: 33PanQinase enzyme assay, MKK4; assay type: biochemical; settings: assay 'IC50'; read-out: Potency MKK4 (IC50)
T4 construct: purchased ProQinase GmbH, Freiburg, Germany (33PanQinase Assay Service)
T4 sequence (P45985 1-399): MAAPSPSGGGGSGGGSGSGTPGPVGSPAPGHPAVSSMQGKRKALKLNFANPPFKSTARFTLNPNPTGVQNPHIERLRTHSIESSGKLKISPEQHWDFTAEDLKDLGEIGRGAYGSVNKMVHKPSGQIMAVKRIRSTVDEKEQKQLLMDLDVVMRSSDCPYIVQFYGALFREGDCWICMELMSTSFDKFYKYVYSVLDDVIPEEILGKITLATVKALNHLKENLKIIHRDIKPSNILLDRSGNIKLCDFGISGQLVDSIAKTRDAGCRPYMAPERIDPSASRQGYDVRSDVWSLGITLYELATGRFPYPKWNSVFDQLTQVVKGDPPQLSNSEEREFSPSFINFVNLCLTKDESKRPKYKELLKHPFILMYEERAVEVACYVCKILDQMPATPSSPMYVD
In short: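 Inhibition measured as 33Pi transfer to substrate after a 60-min, 30 °C reaction, acid-stopped and scintillation-counted.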

JNK1 [6] = target: T3, JNK1; assay: 33PanQinase enzyme assay, JNK1; assay type: biochemical; design: purchased ProQinase GmbH, Freiburg, Germany (33PanQinase Assay Service); settings: ratio IC50(JNK1)/IC50(MKK4)
In short: as §1
Target sequence in this assay (P45983 whole entry): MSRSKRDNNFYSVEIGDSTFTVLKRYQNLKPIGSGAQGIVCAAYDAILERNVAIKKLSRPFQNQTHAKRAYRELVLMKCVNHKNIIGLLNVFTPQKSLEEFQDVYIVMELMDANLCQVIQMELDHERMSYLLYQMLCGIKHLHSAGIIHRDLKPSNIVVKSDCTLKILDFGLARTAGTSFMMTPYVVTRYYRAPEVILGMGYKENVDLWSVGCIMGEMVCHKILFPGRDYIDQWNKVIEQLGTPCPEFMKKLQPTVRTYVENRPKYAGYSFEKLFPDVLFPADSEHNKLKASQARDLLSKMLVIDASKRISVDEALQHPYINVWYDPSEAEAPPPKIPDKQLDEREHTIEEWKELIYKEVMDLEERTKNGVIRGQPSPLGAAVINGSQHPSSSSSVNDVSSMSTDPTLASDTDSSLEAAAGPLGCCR

MKK4 [7] = target: T5, MKK4 (Homo sapiens, UniProt P45985); assay: KINOMEscan competition binding assay, MKK4; settings: residual percent of control binding (PoC) at 100 nM
T5 construct: S84/D399; host or cells: HEK-293
T5 sequence (P45985 84-399): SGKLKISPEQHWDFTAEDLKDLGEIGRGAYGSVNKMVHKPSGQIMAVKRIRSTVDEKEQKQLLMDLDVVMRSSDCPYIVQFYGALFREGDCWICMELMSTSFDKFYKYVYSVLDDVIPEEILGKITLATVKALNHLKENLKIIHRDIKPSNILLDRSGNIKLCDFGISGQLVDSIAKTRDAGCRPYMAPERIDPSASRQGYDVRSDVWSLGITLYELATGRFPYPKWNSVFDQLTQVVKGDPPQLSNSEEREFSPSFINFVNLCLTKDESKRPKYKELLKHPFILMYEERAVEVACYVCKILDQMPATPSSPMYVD
In short: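 Tested at 100 nM and reported as percent of control binding (PoC). MKK4 was produced in HEK-293 cells and DNA-tagged. Displacement from ligand-coated, blocked beads was read by qPCR of eluted kinase.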

BRaf [8] = target: T1, BRaf; assay: KINOMEscan competition binding assay, BRaf; settings: ratio PoC (off-target)/PoC (MKK4)
In short: as §2

T1 sequence (P15056 whole entry, species assumed): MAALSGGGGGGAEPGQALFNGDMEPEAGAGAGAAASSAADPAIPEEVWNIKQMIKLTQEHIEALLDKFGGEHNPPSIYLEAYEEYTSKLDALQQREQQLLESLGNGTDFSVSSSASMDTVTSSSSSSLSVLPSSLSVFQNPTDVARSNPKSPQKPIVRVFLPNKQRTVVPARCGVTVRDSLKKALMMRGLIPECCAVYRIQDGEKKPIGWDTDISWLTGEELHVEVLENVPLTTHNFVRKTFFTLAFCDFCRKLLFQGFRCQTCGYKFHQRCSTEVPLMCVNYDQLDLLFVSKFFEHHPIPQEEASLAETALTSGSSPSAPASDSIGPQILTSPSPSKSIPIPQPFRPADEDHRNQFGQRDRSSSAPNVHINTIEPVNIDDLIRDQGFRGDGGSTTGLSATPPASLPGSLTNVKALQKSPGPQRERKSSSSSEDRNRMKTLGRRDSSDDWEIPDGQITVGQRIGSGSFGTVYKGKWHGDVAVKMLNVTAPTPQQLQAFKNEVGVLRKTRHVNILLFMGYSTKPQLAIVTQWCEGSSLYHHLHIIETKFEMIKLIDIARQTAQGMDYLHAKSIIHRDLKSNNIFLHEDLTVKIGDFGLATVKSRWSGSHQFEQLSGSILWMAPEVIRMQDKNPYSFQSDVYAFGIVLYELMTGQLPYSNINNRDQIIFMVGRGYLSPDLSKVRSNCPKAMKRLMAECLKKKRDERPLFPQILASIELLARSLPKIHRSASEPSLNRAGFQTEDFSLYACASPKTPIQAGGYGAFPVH

Row | SMILES | Selectivity Braf, IC50(off-target)/IC50(MKK4) (BRaf [1]) | selectivity based on % Ctrl @100 nM vs. MKK7 (MKK7 [2]) | Selectivity IVIKK7, IC50(off-target)/IC50(MKK4) (MKK7 [3]) | selectivity based on % Ctrl @100 nM vs. JNK1 (JNK1 [4]) | IC50 (MKK4 [5]) | Selectivity JNK1, IC50(off-target)/IC50(MKK4) (JNK1 [6]) | MKK4 [% Ctrl @ 100 nM (MKK4 [7]) | selectivity based on % Ctrl @100 nM vs. Braf (BRaf [8])
1 | CCCS(=O)(=O)Nc1c(F)ccc(C(=O)c2c[nH]c3ncc(-c4ccc(C(F)(F)F)nc4)cc23)c1F [Example 230, N-(2,6-difluoro-3-(5-(6-(trifluoromethyl)pyridin-3-yl)-1H-pyrrolo[2,3-b]pyridine-3-carbonyl)phenyl)propane-1-sulfonamide] | +++ (IC50(off-target)/IC50(MKK4) > 100) | +++ (Ratio > 100) | +++ (IC50(off-target)/IC50(MKK4) > 100) | +++ (Ratio > 100) | < 100 nM | +++ (IC50(off-target)/IC50(MKK4) > 100) | +++ (PoC < 1) | +++ (Ratio > 100)
2 | CCCS(=O)(=O)Nc1ccc(F)c(C(=O)c2c[nH]c3ncc(-c4ccc(S(C)(=O)=O)nc4)cc23)c1F [Example 77, N-(2,4-difluoro-3-(5-(6-(methylsulfonyl)pyridin-3-yl)-1H-pyrrolo[2,3-b]pyridine-3-carbonyl)phenyl)propane-1-sulfonamide] | ◯ (3 ≥ IC50(off-target)/IC50(MKK4)) | +++ (Ratio > 100) | +++ (IC50(off-target)/IC50(MKK4) > 100) | +++ (Ratio > 100) | 100 to 1000 nM | + (10 ≥ IC50(off-target)/IC50(MKK4) > 3) | +++ (PoC < 1) | ◯ (3 ≥ Ratio)
3 | O=C(c1ccc(F)c(NS(=O)(=O)CCC(F)(F)F)c1F)c1c[nH]c2ncc(-c3ccc(C(F)(F)F)nc3)cc12 [Example 148, N-(2,6-difluoro-3-(5-(6-(trifluoromethyl)pyridin-3-yl)-1H-pyrrolo[2,3-b]pyridine-3-carbonyl)phenyl)-3,3,3-trifluoropropane-1-sulfonamide] | ++ (100 ≥ IC50(off-target)/IC50(MKK4) > 10) | +++ (Ratio > 100) | +++ (IC50(off-target)/IC50(MKK4) > 100) | +++ (Ratio > 100) | < 100 nM | +++ (IC50(off-target)/IC50(MKK4) > 100) | +++ (PoC < 1) | +++ (Ratio > 100)
4 | CCCS(=O)(=O)Nc1ccc(F)c(C(=O)c2c[nH]c3ncc(-c4cccc(OC)c4)cc23)c1F [Example 103, N-(2,4-difluoro-3-(5-(3-methoxyphenyl)-1H-pyrrolo[2,3-b]pyridine-3-carbonyl)phenyl)propane-1-sulfonamide] | ◯ (3 ≥ IC50(off-target)/IC50(MKK4)) | ++ (100 ≥ ratio > 10) | +++ (IC50(off-target)/IC50(MKK4) > 100) | ++ (100 ≥ ratio > 10) | 100 to 1000 nM | + (10 ≥ IC50(off-target)/IC50(MKK4) > 3) | + (3 ≤ PoC < 30) | ◯ (3 ≥ Ratio)
5 | O=C(c1cccc(NS(=O)(=O)Cc2ccccc2)c1F)c1c[nH]c2ncc(-c3ccncc3)cc12 [Example 129, N-(2-fluoro-3-(5-(pyridin-4-yl)-1H-pyrrolo[2,3-b]pyridine-3-carbonyl)phenyl)-1-phenylmethanesulfonamide] | ++ (100 ≥ IC50(off-target)/IC50(MKK4) > 10) | +++ (Ratio > 100) | +++ (IC50(off-target)/IC50(MKK4) > 100) | +++ (Ratio > 100) | 100 to 1000 nM | + (10 ≥ IC50(off-target)/IC50(MKK4) > 3) | +++ (PoC < 1) | +++ (Ratio > 100)
6 | Cc1cc(F)ncc1-c1cnc2[nH]cc(C(=O)c3ccc(F)c(NS(=O)(=O)CCC(F)(F)F)c3F)c2c1 [Example 157, N-(2,6-difluoro-3-(5-(6-fluoro-4-methylpyridin-3-yl)-1H-pyrrolo[2,3-b]pyridine-3-carbonyl)phenyl)-3,3,3-trifluoropropane-1-sulfonamide] | +++ (IC50(off-target)/IC50(MKK4) > 100) | +++ (Ratio > 100) | +++ (IC50(off-target)/IC50(MKK4) > 100) | +++ (Ratio > 100) | < 100 nM | +++ (IC50(off-target)/IC50(MKK4) > 100) | +++ (PoC < 1) | +++ (Ratio > 100)
7 | CCCS(=O)(=O)Nc1c(F)ccc(C(=O)c2c[nH]c3ncc(-c4cnc(C(F)(F)F)nc4)cc23)c1F [Example 184, N-(2,6-difluoro-3-(5-(2-(trifluoromethyl)pyrimidin-5-yl)-1H-pyrrolo[2,3-b]pyridine-3-carbonyl)phenyl)propane-1-sulfonamide] | +++ (IC50(off-target)/IC50(MKK4) > 100) | +++ (Ratio > 100) | +++ (IC50(off-target)/IC50(MKK4) > 100) | +++ (Ratio > 100) | 100 to 1000 nM | ++ (100 ≥ IC50(off-target)/IC50(MKK4) > 10) | +++ (PoC < 1) | +++ (Ratio > 100)
